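1) Cells in 96-well plates. 2) Compound, 48 h, 5 concentrations. 3) Linear interpolation between surrounding doses. 4) Unreached endpoint = highest concentration. GI50 is the concentration that inhibits growth by half. At the TGI there is no net growth.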
What was measured:
Assay in all cases: DTP human tumour cell line panel, 48 h
[1] = system: MDA-MB-231 breast
[2] = system: HCT-116 colon
[3] = system: PC-3 prostate
[4] = system: SK-MEL-5 melanoma
[5] = system: ACHN renal
[6] = system: 786-0 renal
[7] = system: CAKI-1 renal
[8] = system: HOP-92 NSCLC
[9] = system: SW-620 colon
[10] = system: LOX IMVI melanoma
[11] = system: SF-268 CNS
[12] = system: OVCAR-4 ovarian
[13] = system: HT29 colon
[14] = system: HCC-2998 colon
[15] = system: HS 578T breast
[16] = system: A498 renal
[17] = system: KM12 colon
[18] = system: NCI/ADR-RES ovarian
[19] = system: BT-549 breast
[20] = system: SNB-19 CNS
[21] = system: DU-145 prostate
[22] = system: UACC-62 melanoma
[23] = system: NCI-H460 lung
[24] = system: SN12C renal
[25] = system: OVCAR-3 ovarian
[26] = system: MDA-MB-435
[27] = system: K-562 leukemia
[28] = system: OVCAR-5 ovarian
[29] = system: M14 melanoma
[30] = system: IGROV1 ovarian
[31] = system: CCRF-CEM leukemia
[32] = system: NCI-H226 lung
[33] = system: HOP-62 NSCLC
[34] = system: OVCAR-8 ovarian
[35] = system: UACC-257 melanoma
[36] = system: SNB-75 CNS
[37] = system: MOLT-4 leukemia
[38] = system: RXF 393 renal
[39] = system: MCF7 breast
[40] = system: SF-539 CNS
[41] = system: TK-10 renal
[42] = system: SF-295 CNS
[43] = system: A549 NSCLC
[44] = system: NCI-H522 lung
[45] = system: SK-MEL-2 melanoma
[46] = system: NCI-H23 lung
[47] = system: U251 CNS
[48] = system: T-47D breast
[49] = system: HCT-15 colon
[50] = system: SK-OV-3 ovarian
[51] = system: MALME-3M melanoma
[52] = system: COLO 205 colon
[53] = system: RPMI-8226 leukemia
[54] = system: EKVX NSCLC
[55] = system: SK-MEL-28 melanoma
[56] = system: UO-31 renal
[57] = system: HL-60(TB) leukemia

SMILES: O=C1c2ccccc2S(=O)(=O)N1CSC(=S)N1CCCC1
- GI50 [1]: > 100 µM
- TGI [1]: > 100 µM
- GI50 [2]: 63.8 µM
- TGI [2]: > 100 µM
- GI50 [3]: 7.62 µM
- TGI [3]: > 100 µM
- GI50 [4]: > 27.6 µM
- TGI [4]: > 100 µM
- GI50 [5]: > 100 µM
- TGI [5]: > 100 µM
- GI50 [6]: > 100 µM
- TGI [6]: > 100 µM
- GI50 [7]: > 100 µM
- TGI [7]: > 100 µM
- GI50 [8]: > 100 µM
- TGI [8]: > 100 µM
- GI50 [9]: > 100 µM
- TGI [9]: > 100 µM
- GI50 [10]: > 100 µM
- TGI [10]: > 100 µM
- GI50 [11]: > 100 µM
- TGI [11]: > 100 µM
- GI50 [12]: > 51.7 µM
- TGI [12]: > 100 µM
- GI50 [13]: > 100 µM
- TGI [13]: > 100 µM
- GI50 [14]: > 53.4 µM
- TGI [14]: > 100 µM
- GI50 [15]: > 100 µM
- TGI [15]: > 100 µM
- GI50 [16]: > 100 µM
- TGI [16]: > 100 µM
- GI50 [17]: > 100 µM
- TGI [17]: > 100 µM
- GI50 [18]: > 100 µM
- TGI [18]: > 100 µM
- GI50 [19]: > 100 µM
- TGI [19]: > 100 µM
- GI50 [20]: > 100 µM
- TGI [20]: > 100 µM
- GI50 [21]: > 100 µM
- TGI [21]: > 100 µM
- GI50 [22]: > 75.7 µM
- TGI [22]: > 100 µM
- GI50 [23]: 45.4 µM
- TGI [23]: > 100 µM
- GI50 [24]: > 100 µM
- TGI [24]: > 100 µM
- GI50 [25]: > 25.6 µM
- TGI [25]: > 100 µM
- GI50 [26]: 99.7 µM
- TGI [26]: > 100 µM
- GI50 [27]: 4.02 µM
- TGI [27]: > 100 µM
- GI50 [28]: > 100 µM
- TGI [28]: > 100 µM
- GI50 [29]: > 100 µM
- TGI [29]: > 100 µM
- GI50 [30]: 19 µM
- TGI [30]: > 100 µM
- GI50 [31]: 5.78 µM
- TGI [31]: > 100 µM
- GI50 [32]: > 100 µM
- TGI [32]: > 100 µM
- GI50 [33]: > 100 µM
- TGI [33]: > 100 µM
- GI50 [34]: > 100 µM
- TGI [34]: > 100 µM
- GI50 [35]: > 100 µM
- TGI [35]: > 100 µM
- GI50 [36]: > 48 µM
- TGI [36]: > 100 µM
- GI50 [37]: 8.3 µM
- TGI [37]: > 100 µM
- GI50 [38]: > 100 µM
- TGI [38]: > 100 µM
- GI50 [39]: > 22.9 µM
- TGI [39]: > 100 µM
- GI50 [40]: > 100 µM
- TGI [40]: > 100 µM
- GI50 [41]: > 100 µM
- TGI [41]: > 100 µM
- GI50 [42]: > 100 µM
- TGI [42]: > 100 µM
- GI50 [43]: > 88.5 µM
- TGI [43]: > 100 µM
- GI50 [44]: 12.1 µM
- TGI [44]: > 100 µM
- GI50 [45]: > 100 µM
- TGI [45]: > 100 µM
- GI50 [46]: > 78.6 µM
- TGI [46]: > 100 µM
- GI50 [47]: > 100 µM
- TGI [47]: > 100 µM
- GI50 [48]: > 72.4 µM
- TGI [48]: > 100 µM
- GI50 [49]: > 100 µM
- TGI [49]: > 100 µM
- GI50 [50]: > 100 µM
- TGI [50]: > 100 µM
- GI50 [51]: > 100 µM
- TGI [51]: > 100 µM
- GI50 [52]: > 100 µM
- TGI [52]: > 100 µM
- TGI [53]: > 36 µM
- GI50 [54]: > 100 µM
- TGI [54]: > 100 µM
- GI50 [55]: > 100 µM
- TGI [55]: > 100 µM
- GI50 [56]: > 100 µM
- TGI [56]: > 100 µM

SMILES: CC(SC(=S)N1CCCCC1)C(=O)Nc1nnc(-c2ccc(Cl)cc2)o1 (stereo unspecified)
- TGI [1]: > 100 µM
- TGI [2]: 40.3 µM
- TGI [3]: 82.9 µM
- TGI [4]: > 100 µM
- TGI [5]: > 100 µM
- TGI [6]: 47.5 µM
- TGI [8]: > 100 µM
- TGI [9]: > 100 µM
- TGI [10]: > 100 µM
- TGI [11]: 81.1 µM
- TGI [12]: > 100 µM
- TGI [13]: 54.6 µM
- TGI [14]: > 100 µM
- TGI [15]: > 100 µM
- TGI [16]: 88.6 µM
- TGI [18]: > 100 µM
- TGI [19]: > 100 µM
- TGI [20]: > 100 µM
- TGI [21]: > 100 µM
- TGI [22]: 75.1 µM
- TGI [23]: > 100 µM
- TGI [24]: 51.6 µM
- TGI [25]: 64.2 µM
- TGI [26]: > 100 µM
- TGI [27]: > 100 µM
- TGI [28]: > 100 µM
- TGI [29]: 53.7 µM
- TGI [30]: > 100 µM
- TGI [32]: > 100 µM
- TGI [33]: > 100 µM
- TGI [34]: > 100 µM
- TGI [35]: > 100 µM
- TGI [36]: > 100 µM
- TGI [38]: > 100 µM
- TGI [39]: 76.1 µM
- TGI [40]: > 100 µM
- TGI [57]: 23.1 µM
- TGI [41]: > 100 µM
- TGI [43]: > 100 µM
- TGI [45]: 77.1 µM
- TGI [46]: > 100 µM
- TGI [47]: > 100 µM
- TGI [48]: > 100 µM
- TGI [49]: > 100 µM
- TGI [50]: > 100 µM
- TGI [51]: 72.6 µM
- TGI [52]: > 100 µM
- TGI [53]: 51.5 µM
- TGI [55]: > 100 µM
- TGI [56]: 54 µM

From PubChem BioAssay (NCI)
